Experiments:
[1] = test system: Cabbage Looper (Trichoplusia ni) ("CL"); assay: Bioassay on Cabbage Looper (CL), 128-well diet tray assay, percent mortality; assay type: in vivo; details: for CL rating (percent mortality class): Cabbage Looper, 128-well diet tray assay; for pest or weed control at 50 µg/cm2: Trichoplusia ni, read-out: CL
Summary of the method: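 Larvae held in covered diet trays at 25 °C, 14:10 light-dark, for five to seven days. Percent mortality scored per well and averaged over eight wells.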

[2] = test system: Yellow Fever Mosquito "YFM" (Aedes aegypti); details: for YFM rating (mortality class): Yellow Fever Mosquito larvae, 96-well plates; for YFM: Table ABC (P), rating of mortality, Yellow Fever Mosquito
[3] = test system: Green Peach Aphid ("GPA") (Myzus persicae); assay: Bioassay on Green Peach Aphid (GPA), foliar spray on cabbage seedlings, corrected % control; assay type: in vivo; details: for GPA rating (corrected % control class): foliar spray on cabbage seedlings; for GPA: Table ABC (P), rating of corrected % control
[4] = test system: Beet Armyworm (Spodoptera exigua) ("BAW"); assay: Bioassay on Beet Armyworm (BAW), 128-well diet tray assay, percent mortality; assay type: in vivo; details: for BAW rating (percent mortality class): Beet Armyworm, 128-well diet tray assay; for pest or weed control at 50 µg/cm2: Spodoptera exigua, read-out: BAW
Summary of the method: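 Larvae in covered diet trays held at 25 °C, 14:10 light-dark, for five to seven days. Percent mortality scored per well and averaged over eight wells per treatment.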

| SMILES | CL rating (percent mortality class) [1] | YFM rating (mortality class) [2] | GPA rating (corrected % control class) [3] | BAW rating (percent mortality class) [4] | pest or weed control at 50 µg/cm2 [1] [%] | YFM [2] | pest or weed control at 50 µg/cm2 [4] [%] | GPA [3] |
| --- | --- | --- | --- | --- | --- | --- | --- | --- |
| CC(C)c1ccccc1NC(=S)NC(=O)NCCc1ccc(-c2ncn(-c3ccc(OC(F)(F)F)cc3)n2)cc1 [F2, N-[2-isopropylphenyl]-N-[2-(4-{1-[4-(trifluoromethoxy)phenyl]-1H-1,2,4-triazol-3-yl}phenyl)ethyl]dicarbonimidothioic diamide] | A (50-100) | A (80-100) | B (More than 0-Less than 80) | A (50-100) |  |  |  |  |
| Cc1ccc(C(C)C)c(N2C(=O)CS/C2=N\C(=O)NCCc2ccc(-c3ncn(-c4ccc(OC(F)(F)F)cc4)n3)cc2)c1 [F5, (Z)-1-(3-(2-isopropyl-5-methylphenyl)-4-oxothiazolidin-2-ylidene)-3-(4-(1-(4-(trifluoromethoxy)phenyl)-1H-1,2,4-triazol-3-yl)phenethyl)urea] | A (50-100) | A (80-100) | A (80-100) | A (50-100) |  |  |  |  |
| COc1ccc(C(C)C)c(N2C(=O)CS/C2=N\C(=O)NCCc2ccc(-c3ncn(-c4ccc(OC(F)(F)F)cc4)n3)cc2)c1 [F6, (Z)-1-(3-(2-isopropyl-5-methoxyphenyl)-4-oxothiazolidin-2-ylidene)-3-(4-(1-(4-(trifluoromethoxy)phenyl)-1H-1,2,4-triazol-3-yl)phenethyl)urea] | A (50-100) | A (80-100) | B (More than 0-Less than 80) | A (50-100) |  |  |  |  |
| CC(Cc1ccc(-c2ncn(-c3ccc(OC(F)(F)F)cc3)n2)cc1)NC(=O)/N=C1\SCC(=O)N1c1ccccc1C(C)C (stereo not shown) [F7, (Z)-1-(3-(2-isopropylphenyl)-4-oxothiazolidin-2-ylidene)-3-(1-(4-(1-(4-(trifluoromethoxy)phenyl)-1H-1,2,4-triazol-3-yl)phenyl)propan-2-yl)urea] | A (50-100) | A (80-100) | B (More than 0-Less than 80) | A (50-100) |  |  |  |  |
| Cc1ccc(C(C)C)c(N2C(=O)CS/C2=N\C(=O)NCC(C)c2ccc(-c3ncn(-c4ccc(OC(F)(F)F)cc4)n3)cc2)c1 (stereo not shown) [F10, (Z)-1-(3-(2-isopropyl-5-methylphenyl)-4-oxothiazolidin-2-ylidene)-3-(2-(4-(1-(4-(trifluoromethoxy)phenyl)-1H-1,2,4-triazol-3-yl)phenyl)propyl)urea] | A (50-100) | A (80-100) | B (More than 0-Less than 80) | A (50-100) |  |  |  |  |
| COc1ccc(N2C(=O)CS/C2=N\C(=O)NC(C)Cc2ccc(-c3ncn(-c4ccc(OC(F)(F)F)cc4)n3)cc2)c(C)c1 (stereo not shown) [P45, (Z)-1-(3-(4-methoxy-2-methylphenyl)-4-oxothiazolidin-2-ylidene)-3-(1-(4-(1-(4-(trifluoromethoxy)phenyl)-1H-1,2,4-triazol-3-yl)phenyl)propan-2-yl)urea] |  |  |  |  | 50 to 100 | A (80-100) | 50 to 100 |  |
| COc1cc(C)c(N2C(=O)CS/C2=N\C(=O)NCCc2ccc(-c3ncn(-c4ccc(OC(F)(F)F)cc4)n3)cc2)c(C)c1 [P47, (Z)-1-(3-(4-methoxy-2,6-dimethylphenyl)-4-oxothiazolidin-2-ylidene)-3-(4-(1-(4-(trifluoromethoxy)phenyl)-1H-1,2,4-triazol-3-yl)phenethyl)urea] |  |  |  |  | 50 to 100 | A (80-100) | 50 to 100 |  |
| CCc1ccc(C)cc1N1C(=O)CS/C1=N\C(=O)NCCc1ccc(-c2ncn(-c3ccc(OC(F)(F)F)cc3)n2)cc1 [P49, (Z)-1-(3-(2-ethyl-5-methylphenyl)-4-oxothiazolidin-2-ylidene)-3-(4-(1-(4-(trifluoromethoxy)phenyl)-1H-1,2,4-triazol-3-yl)phenethyl)urea] |  |  |  |  | 50 to 100 | A (80-100) | 50 to 100 |  |
| CCc1cccc(C)c1N1C(=O)CS/C1=N\C(=O)NCCc1ccc(-c2ncn(-c3ccc(OC(F)(F)F)cc3)n2)cc1 [P50, (Z)-1-(3-(2-ethyl-6-methylphenyl)-4-oxothiazolidin-2-ylidene)-3-(4-(1-(4-(trifluoromethoxy)phenyl)-1H-1,2,4-triazol-3-yl)phenethyl)urea] |  |  |  |  | 50 to 100 | A (80-100) | 50 to 100 |  |
| CC(C)c1cccc(N2C(=O)CS/C2=N\C(=O)NCCc2ccc(-c3ncn(-c4ccc(OC(F)(F)F)cc4)n3)cc2)c1 [P51, (Z)-1-(3-(3-isopropylphenyl)-4-oxothiazolidin-2-ylidene)-3-(4-(1-(4-(trifluoromethoxy)phenyl)-1H-1,2,4-triazol-3-yl)phenethyl)urea] |  |  |  |  | 50 to 100 | A (80-100) | 50 to 100 | B (More than 0-Less than 80) |
| Cc1ccc(C(C)C)c(N2C(=O)CS/C2=N\C(=O)NCCc2ccc(-c3ncn(-c4ccc(C(F)(F)F)cc4)n3)cc2)c1 [P52, (Z)-1-(3-(2-isopropyl-5-methylphenyl)-4-oxothiazolidin-2-ylidene)-3-(4-(1-(4-(trifluoromethyl)phenyl)-1H-1,2,4-triazol-3-yl)phenethyl)urea] |  |  |  |  | 50 to 100 | A (80-100) | 50 to 100 |  |
| COc1ccc(C(C)C)c(N2C(=O)CS/C2=N\C(=O)NCCc2ccc(-c3ncn(-c4ccc(C(F)(F)F)cc4)n3)cc2)c1 [P53, (Z)-1-(3-(2-isopropyl-5-methoxyphenyl)-4-oxothiazolidin-2-ylidene)-3-(4-(1-(4-(trifluoromethyl)phenyl)-1H-1,2,4-triazol-3-yl)phenethyl)urea] |  |  |  |  | 50 to 100 | A (80-100) | 50 to 100 |  |
| Cc1ccc(C(C)C)c(N2C(=O)C(C)S/C2=N\C(=O)NCCc2ccc(-c3ncn(-c4ccc(OC(F)(F)F)cc4)n3)cc2)c1 (stereo not shown) [P57, (Z)-1-(3-(2-isopropyl-5-methylphenyl)-5-methyl-4-oxothiazolidin-2-ylidene)-3-(4-(1-(4-(trifluoromethoxy)phenyl)-1H-1,2,4-triazol-3-yl)phenethyl)urea] |  |  |  |  | 50 to 100 | A (80-100) | 50 to 100 |  |
| Cc1ccc(C(C)C)c(-n2c(C)cs/c2=N\C(=O)NCCc2ccc(-c3ncn(-c4ccc(OC(F)(F)F)cc4)n3)cc2)c1 [P65, (Z)-1-(3-(2-isopropyl-5-methylphenyl)-4-methylthiazol-2(3H)-ylidene)-3-(4-(1-(4-(trifluoromethoxy)phenyl)-1H-1,2,4-triazol-3-yl)phenethyl)urea] |  |  |  |  | 50 to 100 | A (80-100) | 50 to 100 |  |
| Cc1ccccc1N1C(=O)CS/C1=N\C(=O)NCCCCc1ccc(-c2ncn(-c3ccc(OC(F)(F)F)cc3)n2)cc1 [P144, (Z)-1-(4-oxo-3-(o-tolyl)thiazolidin-2-ylidene)-3-(4-(4-(1-(4-(trifluoromethoxy)phenyl)-1H-1,2,4-triazol-3-yl)phenyl)butyl)urea] |  |  |  |  | 50 to 100 | A (80-100) | 50 to 100 |  |
| Cc1ccc(N2C(=O)CS/C2=N\C(=O)NCCCCc2ccc(-c3ncn(-c4ccc(OC(F)(F)F)cc4)n3)cc2)c(C(C)C)c1 [P154, (Z)-1-(3-(2-isopropyl-4-methylphenyl)-4-oxothiazolidin-2-ylidene)-3-(4-(4-(1-(4-(trifluoromethoxy)phenyl)-1H-1,2,4-triazol-3-yl)phenyl)butyl)urea] |  |  |  |  | 50 to 100 | B (More than 0-Less than 80) | 50 to 100 |  |
| Cc1ccc(C(C)C)c(N2C(=O)CS/C2=N\C(=O)NCCCCc2ccc(-c3ncn(-c4ccc(C(F)(F)F)cc4)n3)cc2)c1 [P159, (Z)-1-(3-(2-isopropyl-5-methylphenyl)-4-oxothiazolidin-2-ylidene)-3-(4-(4-(1-(4-(trifluoromethyl)phenyl)-1H-1,2,4-triazol-3-yl)phenyl)butyl)urea] |  |  |  |  | 50 to 100 | A (80-100) | 50 to 100 | B (More than 0-Less than 80) |
| Cc1ccc(C(C)C)c(N2C(=O)CS/C2=N\C(=O)NCCC#Cc2ccc(-c3ncn(-c4ccc(OC(F)(F)F)cc4)n3)cc2)c1 [P160, (Z)-1-(3-(2-isopropyl-5-methylphenyl)-4-oxothiazolidin-2-ylidene)-3-(4-(4-(1-(4-(trifluoromethoxy)phenyl)-1H-1,2,4-triazol-3-yl)phenyl)but-3-yn-1-yl)urea] |  |  |  |  | 50 to 100 | B (More than 0-Less than 80) | 50 to 100 |  |
| CC(C)c1ccccc1N1C(=O)CS/C1=N\C(=O)NCC(C)c1ccc(-c2ncn(-c3ccc(OC(F)(F)F)cc3)n2)cc1 (stereo not shown) [P205, (Z)-1-(3-(2-isopropylphenyl)-4-oxothiazolidin-2-ylidene)-3-(2-(4-(1-(4-(trifluoromethoxy)phenyl)-1H-1,2,4-triazol-3-yl)phenyl)propyl)urea] |  |  |  |  | 50 to 100 | A (80-100) | 50 to 100 |  |
| COc1ccc(C(C)C)c(N2C(=O)CS/C2=N\C(=O)NCC(C)c2ccc(-c3ncn(-c4ccc(OC(F)(F)F)cc4)n3)cc2)c1 (stereo not shown) [P679, (Z)-1-(3-(2-isopropyl-5-methoxyphenyl)-4-oxothiazolidin-2-ylidene)-3-(2-(4-(1-(4-(trifluoromethoxy)phenyl)-1H-1,2,4-triazol-3-yl)phenyl)propyl)urea] |  |  |  |  | 50 to 100 | A (80-100) | 50 to 100 |  |
